# “Also recorded” adds a separate entry of the source. Read-outs that look alike come from different tables or passages of the source.
# What was measured:
# [1] = target: T1, IGF-1R (Homo sapiens, UniProt P08069); settings: cited from earlier work
# [2] = target: T1, IGF-1R; settings: cited from earlier work; remark: listed apart in the source
# [3] = oxidation; cited from earlier work
# [4] = test system: PDGFR; settings: intact cells; cited from earlier work
# [5] = test system: primary mouse lung fibroblasts; assay: migration assay (FluoroBlok transwell); type: cell-based, C57BL6 mice
# Protocol: Mouse lung fibroblasts were plated FluoroBlok transwell filters overnight, then IGF-1 (100 ng/ml), serum free media (negative control), 10% serum (positive control) was added to lower chamber. Some cells were preincubated with the blocking antibody to IGF-1R (A12, 40 μg/ml) before the addition of IGF-1. Cells were allowed to migrate through membrane for 4 hours @ 37° C. Migrated cells were counted with Fluorescent microscope. Each experiments was done in triplicate and repeated at least three times. Average cell count ±SD are presented.
# For migration assays, primary mouse lung fibroblasts (50,000 cells/well) were plated in serum-free medium overnight on Fluoroblok transwell filters (8 μm pores, HTS FluoroBlok™ 24-Multiwell Insert System, BD Bioscience, Bedford, Mass.) pre-coated with fibronectin (50 μg/ml). Fluoroblok microporous membranes are specifically designed to detect by fluorescence only cells below the surface membrane. IGF-1 (100 ng/ml), 10% FBS (positive control) or serum-free media (negative control) was added to lower chamber. In some experiments, cells were preincubated with the blocking antibody to IGF-1R (A12, 40 μg/ml), for 1 hour. After 4 hours of migration, filters were fixed with formaldehyde and stained with DAPI (4′6-Diamidine-2′-phenylindole dihydrochloride, Roche, Indianapolis, Ind.). Migrated cells were counted in three predesignated fields for each filter. All experiments were done in triplicate and repeated at least three times.
# [6] = target: IR (Homo sapiens, UniProt P06213); settings: even at high concentrations; cited from earlier work
# [7] = test system: IGF-1R-positive tumors; settings: mice; cited from earlier work
# [8] = rats; cited from earlier work
# [9] = target: T1, IGF-1R; settings: cited from earlier work; remark: listed apart in the source
# [10] = test system: β-tubulin; settings: interaction with β-tubulin, mitotic arrest; cited from earlier work
# [11] = test system: tumors; settings: nude mice; cited from earlier work
# [12] = test system: IR; settings: in vivo; cited from earlier work
# [13] = target: T1, IGF-1R; settings: cited from earlier work; remark: listed apart in the source
# [14] = test system: mouse lung fibroblasts; assay: Western blot of signaling in IGF-stimulated lung fibroblasts; type: cell-based; settings: IGF-1 100 ng/ml
# Protocol: Tyrosine phosphorylation of receptor tyrosine kinase substrates was evaluated. Mouse lung fibroblasts were serum-starved overnight and then stimulated with IGF-1 (100 ng/ml) for indicated times. Cells were lysed, and proteins separated by SDS-PAGE. Each membrane was blotted with indicated phospho-antibody then stripped and reblotted with antibody to total protein. Substrates include IGF-1R, IRS-1 and IRS-2. The tyrosine phosphorylated forms of the substrates are indicated by pIGF-1R, pIRS-1 and pIRS-2, respectively.
# Tyrosine phosphorylation of receptor tyrosine kinase substrates was evaluated. Substrates include AKT, ERK. The tyrosine phosphorylated forms of the substrates are indicated by pAKT, pERK, respectively.
# For Western Blot analyses, cells were grown to 70% confluence, placed in serum free medium overnight and then IGF-1 (100 ng/ml) was added for 5, 10, 15, 30 and 60 minutes. At indicated time points, cells were washed in ice-cold PBS and lysed in buffer containing 100 mM Tri-HCl (pH 7.4), 150 mM NaCl, 1 mM CaCl2, 0.1% SDS, 1% Triton-X, 0.1% NP-40, 1 mM […] (sodium vanadate), 1 mM NaF (sodium Fluoride) and protease inhibitor cocktail tablet (Roche). Protein concentrations were determined by the BCA assay (Pierce). Equal amounts of protein were separated by sodium dodecyl sulfate-polyacrylamide gel electrophoresis (SDS-PAGE), and electrophoretically transferred to PVDF membrane. Membranes were blocked with 5% nonfat dry milk/0.05% Tween-20/PBS for 2 hours, incubated with primary antibody for 2 hours at room temperature, washed with 0.05% Tween-20/PBS, incubated with horseradish peroxidase-conjugated secondary antibody (1:5000) for 2 h, washed with 0.05% Tween-20/PBS and then developed with enhanced chemiluminescence (ECL) technique (Amersham, England).
# [15] = test system: primary mouse lung fibroblasts; assay: proliferation assay (MTT); type: cell-based, C57BL6 mice
# Protocol: Mouse lung fibroblasts from saline-treated mice (A) or bleomycin-treated mice (B) were plated in triplicate and serum-starved overnight followed by addition of IGF-1 (100 ng/ml), serum-free media (negative control), 10% FBS (positive control), and then incubated for indicated time. Cell proliferation was measured by MTT assay. Data are shown as mean OD570 nm±SD and are average of at least 4 independent experiments.
# For proliferation assays, primary mouse lung fibroblasts were plated at 10,000 cells/100 μl in 96-well plates. After initial adhesion, medium was changed to serum free overnight and then IGF-1 (100 ng/ml) was added. As a positive control, cells were grown in 10% FBS; as a negative control, cell were grown in serum-free media. Cell proliferation was assayed at 48, 72 or 96 hours by colorimetric methyl thiazolyl tetrazolium (MTT) assay per manufacturer's direction (Qiang et al., Blood 103:301-308 (2004)). Optical density of plates was read on a Spectra Max 250 (Molecular Device, Sunnyvale, Calif.) at 570 nm. All experiments were done in triplicate and repeated three times.
# [16] = test system: primary distal lung human epithelial cells; assay: apoptosis assay (Cell Death Detection ELISA-plus), lung epithelial cells; type: cell-based; settings: serum starvation, increasing concentrations
# Protocol: (§1) A: Normal human lung fibroblast or distal lung epithelial cells were serum-starved overnight and then incubated with indicated concentration of IGF-1R antibody or IGFBP-3 overnight. B: A549 cells were serum-starved and incubated with IGF-1R antibody (136 μg/ml) with or without the indicated concentration of Fas ligand. Apoptosis was measured by Cell Death ELISA-plus ELISA (Roche Applied Science) per the manufacturer's directions. All experiments were done in triplicate and repeated at least twice. Apoptosis index is defined as the ratio of experimental condition OD405 nm: control (media alone) OD405 nm.
# (§2) Primary normal human lung fibroblasts (Clonetics, Cambrex Bioscience, Rockland, Me.), primary distal lung human epithelial cells (Clonetics) or A549 (American Type Culture Collection, Manassas, Va.) were seeded in a 96-well tissue culture plate (2×10^4 cells/well) overnight and serum-starved for 24 hours. […] After 48 hours, apoptosis was measured. To prevent detached cells from being aspirated, plates were centrifuged at 200×g for 10 minutes, and apoptosis was measured using the Cell Death Detection ELISA-plus System (Roche Applied Science, Penzberg, Germany), which detects cytosolic histone-complexed DNA fragments. […]
# [17] = test system: primary normal human lung fibroblasts; assay: apoptosis assay (Cell Death Detection ELISA-plus), lung fibroblasts; type: cell-based; settings: serum starvation, increasing concentrations
# Protocol: as §1, §2
# [18] = test system: human IGF-1R mRNA; settings: cited from earlier work
# T1 sequence (P08069 31-1367, species assumed): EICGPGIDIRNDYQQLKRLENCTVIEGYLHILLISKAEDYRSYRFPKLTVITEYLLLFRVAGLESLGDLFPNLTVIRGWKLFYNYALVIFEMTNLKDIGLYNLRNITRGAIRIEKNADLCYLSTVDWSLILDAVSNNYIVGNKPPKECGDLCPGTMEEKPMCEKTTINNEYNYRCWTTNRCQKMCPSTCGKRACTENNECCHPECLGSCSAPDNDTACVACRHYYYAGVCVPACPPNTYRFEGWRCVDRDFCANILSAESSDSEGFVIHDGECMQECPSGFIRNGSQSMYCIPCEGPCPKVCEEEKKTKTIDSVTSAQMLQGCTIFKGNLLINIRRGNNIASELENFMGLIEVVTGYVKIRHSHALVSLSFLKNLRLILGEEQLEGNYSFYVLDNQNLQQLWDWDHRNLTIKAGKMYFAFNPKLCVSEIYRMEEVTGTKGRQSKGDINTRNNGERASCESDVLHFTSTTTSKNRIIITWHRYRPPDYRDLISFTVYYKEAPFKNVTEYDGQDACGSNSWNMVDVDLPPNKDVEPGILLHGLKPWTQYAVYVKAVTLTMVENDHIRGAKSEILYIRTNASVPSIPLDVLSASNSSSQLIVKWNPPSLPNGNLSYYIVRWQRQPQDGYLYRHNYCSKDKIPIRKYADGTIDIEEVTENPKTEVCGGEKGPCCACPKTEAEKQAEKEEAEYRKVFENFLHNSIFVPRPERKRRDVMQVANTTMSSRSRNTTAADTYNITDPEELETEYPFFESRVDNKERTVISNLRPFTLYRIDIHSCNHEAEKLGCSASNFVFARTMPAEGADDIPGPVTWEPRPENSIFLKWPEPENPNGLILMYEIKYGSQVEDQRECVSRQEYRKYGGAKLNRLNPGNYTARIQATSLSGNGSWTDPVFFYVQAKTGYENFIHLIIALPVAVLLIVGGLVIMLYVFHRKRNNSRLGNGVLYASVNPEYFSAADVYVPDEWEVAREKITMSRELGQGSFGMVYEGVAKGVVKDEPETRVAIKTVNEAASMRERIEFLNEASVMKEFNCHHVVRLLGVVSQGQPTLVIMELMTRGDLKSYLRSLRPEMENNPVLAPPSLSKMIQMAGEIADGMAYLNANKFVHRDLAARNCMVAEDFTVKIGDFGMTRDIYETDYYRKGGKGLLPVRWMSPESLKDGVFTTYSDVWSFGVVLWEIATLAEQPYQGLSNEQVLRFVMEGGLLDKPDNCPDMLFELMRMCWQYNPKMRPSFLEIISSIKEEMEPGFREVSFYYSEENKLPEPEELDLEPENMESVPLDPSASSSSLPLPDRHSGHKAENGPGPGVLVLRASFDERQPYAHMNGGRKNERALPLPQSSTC
# IR (Homo sapiens, UniProt P06213), sequence (P06213 28-1382): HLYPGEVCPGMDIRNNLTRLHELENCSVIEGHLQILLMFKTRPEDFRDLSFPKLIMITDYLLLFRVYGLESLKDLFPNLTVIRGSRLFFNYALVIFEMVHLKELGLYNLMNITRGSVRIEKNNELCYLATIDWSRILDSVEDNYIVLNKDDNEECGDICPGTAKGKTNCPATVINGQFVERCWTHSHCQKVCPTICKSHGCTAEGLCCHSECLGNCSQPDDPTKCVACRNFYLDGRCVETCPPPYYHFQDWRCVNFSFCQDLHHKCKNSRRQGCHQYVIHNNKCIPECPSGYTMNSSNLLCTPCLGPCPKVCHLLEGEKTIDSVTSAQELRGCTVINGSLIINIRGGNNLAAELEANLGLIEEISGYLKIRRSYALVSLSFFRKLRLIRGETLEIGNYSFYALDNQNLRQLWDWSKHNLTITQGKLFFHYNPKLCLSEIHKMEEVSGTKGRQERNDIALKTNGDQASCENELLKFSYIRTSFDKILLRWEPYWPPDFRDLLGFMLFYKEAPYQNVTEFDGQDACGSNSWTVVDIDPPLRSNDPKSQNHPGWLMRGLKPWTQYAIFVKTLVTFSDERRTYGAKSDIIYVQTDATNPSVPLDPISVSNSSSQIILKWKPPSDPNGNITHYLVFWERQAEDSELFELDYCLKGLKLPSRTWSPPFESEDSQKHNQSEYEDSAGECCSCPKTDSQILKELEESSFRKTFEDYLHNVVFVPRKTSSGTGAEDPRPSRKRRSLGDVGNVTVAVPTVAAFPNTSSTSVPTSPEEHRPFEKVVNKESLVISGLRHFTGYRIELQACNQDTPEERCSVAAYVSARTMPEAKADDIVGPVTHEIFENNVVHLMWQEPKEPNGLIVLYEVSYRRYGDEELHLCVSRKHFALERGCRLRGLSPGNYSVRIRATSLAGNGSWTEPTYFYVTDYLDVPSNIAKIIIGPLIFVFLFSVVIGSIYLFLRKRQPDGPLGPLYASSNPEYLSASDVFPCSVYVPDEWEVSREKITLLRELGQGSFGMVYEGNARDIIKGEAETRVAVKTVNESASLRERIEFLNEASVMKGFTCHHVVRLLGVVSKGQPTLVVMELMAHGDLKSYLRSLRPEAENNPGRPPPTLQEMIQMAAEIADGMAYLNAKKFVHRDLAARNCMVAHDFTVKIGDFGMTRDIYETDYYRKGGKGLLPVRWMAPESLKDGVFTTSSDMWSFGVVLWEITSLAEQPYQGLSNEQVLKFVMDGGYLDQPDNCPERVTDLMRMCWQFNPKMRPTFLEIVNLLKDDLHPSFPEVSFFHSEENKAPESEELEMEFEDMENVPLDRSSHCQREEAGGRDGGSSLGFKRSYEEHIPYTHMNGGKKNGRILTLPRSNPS
molecule,measurement,setting,value
N#C/C(=C\c1ccc(O)c(O)c1)C(=O)c1ccc(O)c(O)c1 [AG 538],receptor autophosphorylation and activation of downstream targets PKB and Erk2,[1]; cultured cells,inhibits receptor autophosphorylation
same,IC50,"[2]; cell free kinase assay, read-out: IC50 inhibition of IGF-1R",0.061 µM
same,stability of catechol moiety,[3],unstable due to its vulnerability to oxidation
N#C/C(=C\c1ccc2oc(=O)[nH]c2c1)C(=O)c1ccc(O)c(O)c1 [AGL 2263],activity relative to parent compound AG 538 in cell culture assays,[1]; cell culture assays,comparable to the parent compound
same,IC50,"[1]; intact cells, read-out: IC50 inhibiting the activation of PKB in intact cells",6 µM
same,activity relative to parent compound AG 538 in cell free assays,[2]; cell free assays,somewhat less active
same,PKB activation by PDGFR,[4],did not affect
"COc1cccc(-c2cc(=O)c3ccccc3o2)c1N [PD98059, reference compound]",effect on IGF-1-induced migration,"[5]; IGF-1 100 ng/ml, A12 40 μg/ml preincubation",partially inhibited
"COc1cc([C@@H]2c3cc4c(cc3[C@H](O)[C@H]3COC(=O)[C@@H]23)OCO4)cc(OC)c1OC [PPP, picropodophyllin]",effect on IR activity,[6],did not affect IR activity
same,killing IGF-1R-positive tumors,[7],effective at killing IGF-1R-positive tumors
same,LD50,[8],> 500 mg/kg
same,IC50 on IGF-1R activity,[9],sub-micromolar
"COc1cc([C@@H]2c3cc4c(cc3[C@H](O)[C@H]3COC(=O)[C@H]23)OCO4)cc(OC)c1OC [PPT, podophyllotoxin]",effect on IR activity,[6],did not affect IR activity
same,IC50 on IGF-1R activity,[9],sub-micromolar
same,cytotoxicity,[10],cytotoxic
COc1ccc(Cl)cc1NC(=O)Nc1cc(C)nc2ccccc12 [PQ401],growth rate of tumors,[11],reduce the growth rate of tumors
"CN1CCN([C@H]2C[C@@H](c3nc(-c4ccc5ccc(-c6ccccc6)nc5c4)c4c(N)nccn43)C2)CC1 [cis-3-[3-(4-methyl-piperazin-1-yl)-cyclobutyl]-1-(2-phenyl-quinolin-7-yl)-imidazo[1,5-a]pyrazin-8-ylamine]",rise in blood sugar,[12],without causing any substantial rise in blood sugar
same,IGF-1R activity in vivo,[13],inhibit IGF-1R activity in vivo
"IGF-1: insulin-like growth factor 1, purchased from R&D Systems",Akt phosphorylation,[14],phosphorylated in response to IGF-1 stimulation by 15 minutes and persisted until 60 minutes
same,ERK phosphorylation,[14],did not undergo phosphorylation
same,IRS-1 phosphorylation,[14],did not change
same,IRS-2 phosphorylation,[14],increased phosphorylation by 10 minutes that persisted until 30 minutes
same,time to IGF-1R phosphorylation,[14],≤ 10 min
same,proliferation of normal mouse lung fibroblasts,"[15]; IGF-1 50 or 100 ng/ml, serum-free, up to 96 h",did not increase proliferation; also recorded: increased proliferation was not observed
same,proliferation of activated fibroblasts derived from bleomycin-treated mice,[15]; data not shown,can induce proliferation
same,increase in migration,"[5]; IGF-1 100 ng/ml, FIG. 4",1.8 fold
same,migration of MLF in response to IGF-1,"[5]; transwell filter, 4 hours, FIG. 5",increased migration
IGFBP-3: insulin-like growth factor-binding protein-3 (R&D Systems),apoptosis of primary lung epithelial cells,[16],increased apoptosis was not observed
same,apoptosis of primary human lung fibroblasts,[17],increased apoptosis was not observed
"siRNA 1: 5'-GGGACCCUCCUCCGGAGCCAG-3' (antisense; SEQ ID NO: 1) and 5'-GGCUCCGGAGGAGGGUCCCCG-3' (sense; SEQ ID NO: 2) (listed as RNA, chemistry not given here)",targeting of human IGF-1R mRNA,[18],effective to target human IGF-1R mRNA
"siRNA 2: 5'-GGUCUUCUCACACAUCGGCUU-3' (antisense; SEQ ID NO: 3) and 5'-GCCGAUGUGUGAGAAGACCUU-3' (sense; SEQ ID NO: 4) (listed as RNA, chemistry not given here)",targeting of human IGF-1R mRNA,[18],effective to target human IGF-1R mRNA

# From patent US8178091B2, “Compositions and methods for the treatment of respiratory disorders” (University of Washington, priority 2007, dated 2012)
